Like-named read-outs stand apart in the source and are kept apart here.
Assays:
[1] = tested on: ARN8 cells; experiment: Propidium iodide flow cytometry (cell cycle); assay type: cell-based, human; conditions: 48 h; for Effect on cell cycle distribution / cell death: 10 μM tenovins 1 and 33 or 200 nM brequinar; for Effect of uridine or OA on the compound's cell cycle effect: 10 μM, 100 μM uridine or 1 mM OA, not with DHO
Experimental: ARN8 cells were seeded at 30,000 per well, respectively, in 6-well plates and incubated for 24 h. All compounds were diluted to 10× stocks in fully supplemented growth medium. Cells were incubated with the compounds for 48 h. Cell culture medium was removed and placed into Falcon tubes. Wells were washed twice with 1× PBS with the washes saved in the Falcon tubes to harvest floating dead cells. Cells remaining in the wells were trypsinized with 200 μl of 1× trypsin/EDTA (Sigma–Aldrich #T4174). Following detachment, fresh growth medium was added to each well, and the contents were removed and placed in the relevant tubes. Any remaining cells in the plate were then gathered by washing twice with 2 ml of 1× PBS with the washes saved and added to the relevant tubes. The tubes were centrifuged at 500 × g for 5 min. Cell pellets were washed twice with 1× PBS. The pellets were resuspended in 1 ml of 1× PBS and added dropwise to 3 ml of 99.9% ethanol while vortex mixing at high speed. Cells were then fixed at –20 °C for 24 h. Following fixation, cells were pelleted at 1390 × g for 5 min. The cells were washed three times with 2 ml of 1× PBS containing 3% FBS with centrifugation at 1390 × g between washes. Cells were resuspended in 0.5 ml of PBS containing 10 μg of propidium iodide (Invitrogen #P3566) and 50 μg of RNase A (Sigma–Aldrich #R4642) and incubated on ice in the dark for 10 min. Flow cytometry was performed using a BD Biosciences FACScan or FACSCalibur with 10,000 events counted within the gating region.

[2] = target: T1, recombinant human DHODH (Homo sapiens, UniProt Q02127); experiment: DHODH enzymatic assay (kinetic, DCIP reduction); assay type: biochemical
T1 construct: made in house
T1 sequence (Q02127 whole entry): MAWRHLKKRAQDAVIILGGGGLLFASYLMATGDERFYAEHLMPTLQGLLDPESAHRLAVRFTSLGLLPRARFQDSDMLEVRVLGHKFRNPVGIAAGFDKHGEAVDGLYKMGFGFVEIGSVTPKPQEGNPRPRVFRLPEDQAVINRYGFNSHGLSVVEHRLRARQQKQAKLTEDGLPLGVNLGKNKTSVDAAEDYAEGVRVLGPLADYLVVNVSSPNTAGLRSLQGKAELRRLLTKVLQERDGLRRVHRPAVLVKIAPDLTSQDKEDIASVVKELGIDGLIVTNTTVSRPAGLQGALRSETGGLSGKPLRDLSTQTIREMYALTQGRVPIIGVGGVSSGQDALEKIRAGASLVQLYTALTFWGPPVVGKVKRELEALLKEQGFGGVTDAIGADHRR
Experimental: Enzyme assays were performed with 6 nM recombinant human DHODH prepared as described ([36]). The reaction mixture for these kinetic assays consisted of 1 mM DHO, 100 μM 2,3-dimethoxy-5-methyl-p-benzoquinone (Sigma–Aldrich #D9150), and 100 μM 2,6-dichlorophenolindophenol sodium salt (DCIP; Sigma–Aldrich #D1878) in enzyme buffer (50 mM Tris-HCl pH 8.0, 0.1% Triton X-100, 150 mM KCl). A stock solution of 20 mM DCIP was prepared in enzyme buffer and filtered through filter paper (20−25-μm pore size) just before use. Loss in absorbance by DCIP was measured at 595 nm at room temperature in a stepped time course (8 × 2 min, 8 × 3 min, 6 × 5 min). The observed decrease in absorbance over time was linear between 8 and 26 min. Therefore, for each concentration of inhibitor tested, a value for DHODH's Vmax was estimated by linear regression within this time frame. The IC50 is defined as the concentration of inhibitor that gives Vmax([I]) = Vmax(DMSO)/2.

[3] = tested on: ARN8 cells; experiment: SRB assay in ARN8 cells with nucleotide supplementation; assay type: cell-based, human; conditions: 72 h, 100 μM uridine, 1 mM DHO or 1 mM OA
Experimental: Cells were seeded in a 96-well plate at a density of 500 cells/well (ARN8) in a volume of 100 μl of fully supplemented growth medium and incubated as described above for 24 h. SKNSH p53 WT pCMV neo cells were seeded at 7500 cells/well in 100 μl of fully supplemented growth medium and incubated as described above for 24 h. SKNSH ddp53 cells were seeded at a density of 6000 cells/well in 100 μl of fully supplemented growth medium and incubated as described above for 24 h. Cells were checked for adherence and treated with tenovins in DMSO supplemented with 100 μM uridine, 1 mM DHO, or 1 mM OA. The final percentage of DMSO per well was <0.2%. Cells were incubated for 72 h with compounds. Following incubation, medium was removed from the cells and replaced by 150 μl of 1× sterile PBS and 50 μl of 40% (w/v) TCA (Sigma–Aldrich #T9159) in distilled H2O and incubated at 4 °C for 1 h to fix the cells. The plate was then washed with three changes of water with all liquid allowed to drain from the plate. 50 μl of 0.4% (w/v) sulforhodamine B (Sigma–Aldrich #230162) with 1% (v/v) acetic acid (Sigma–Aldrich #320099) in H2O was added to each well and incubated for 30 min. Excess dye was washed out with three changes of 1% (v/v) acetic acid in H2O. The remaining dye was solubilized in 100 μl of 10 mM unbuffered Tris-base (Sigma–Aldrich #93362) per well, and absorbance was read at 490 nm on a spectrophotometer.

[4] = tested on: U2OS or ARN8 cells; experiment: Uridine uptake assay ([3H]uridine, scintillation counting); assay type: cell-based, human; conditions: 5 μM
Experimental: 100,000 (24-h assay) or 200,000 (15-min assay) U2OS or ARN8 cells were seeded per well in 6-well plates in 2 ml of fully supplemented culture medium as described above. 24 h postseeding, medium was removed, and cells were treated with the indicated compounds for either 15 min or 24 h in 2 ml of FBS-free medium supplemented with serum replacement 3 (Sigma–Aldrich #S2640). At the end of the treatment, an extra well of each treatment was harvested in 100 μl of 1× LDS (62.5 mM Tris-HCl, pH 6.8, 10% glycerol, 1% LDS) for quantification of protein levels to determine the level of cell death after 24 h for normalization with protein concentration determined by the Bio-Rad DC protein assay (Bio-Rad #5000111). [^3H]Uridine (PerkinElmer Life Sciences #NET367001MC) was prepared in serum replacement medium to a final emission of 3.65 μCi ml^−1 and added to cells for 10 min. Following 10 min, the cells were washed with four quick changes of 1 mM unlabeled uridine prepared in ice-cold transport buffer (20 mM Tris-HCl, pH 7.4, 130 mM NaCl, 3 mM K2HPO4, 1 mM MgCl2, 5 mM glucose, 2 mM CaCl2). The samples were then harvested in 100 μl of 10% SDS. 900 μl of Optiphase Supermix (PerkinElmer Life Sciences #1200-439) was added to each sample, and the cpm were measured using a 1450 MicroBeta JET for liquid scintillation (PerkinElmer Life Sciences/Wallac).

[5] = tested on: p53, hdm2 and p21 in ARN8 cells; experiment: Western blotting of p53 and p53 targets in ARN8 cells; assay type: cell-based, human; conditions: 5 μM; for Treatment time at which p53 protein levels increased: blotted at 2, 4, 6 or 8 h; for Effect of OA and uridine on p53 protein and downstream signaling (hdm2, p21): 24 h, 100 μM uridine or 1 mM OA
Experimental: 150,000 ARN8, HCT116 p53 WT, or HCT116 p53 KO cells were seeded on 6-well plates in 2 ml of fully supplemented medium as described above. […] A protein assay was conducted using the Bio-Rad DC protein analysis kit (Bio-Rad #5000111), and the protein levels were normalized between samples. […] The transfer was conducted using the Trans-Blot Turbo preset program for standard semidry transfer (30 min). All membranes were blocked in 5% milk (w/v) in PBS-T containing 0.1% Tween 20 (v/v) (Sigma–Aldrich P9416). All antibodies were made up in 5% milk (w/v) in PBS-T. All antibody incubations were either overnight at 4 °C or at room temperature for 1 h. […] All secondary antibodies were polyclonal rabbit anti-mouse antibodies conjugated to horseradish peroxidase (DAKO, Glostrup, Denmark #P0260) and diluted at concentrations of 1:2000 (v/v). […] All blots were normalized to their respective vehicle control and quantified using ImageLab where quantification was required (Bio-Rad version 5.2.1 build 11).

[6] = tested on: p53 transcriptional activity in ARN8 cells; experiment: p53 transcriptional activation (CPRG) cell reporter assay; assay type: cell-based, human; conditions: 18 h, 100 μM uridine, 1 mM DHO or 1 mM OA
Experimental: ARN8 cells were seeded in a 96-well plate at a density of 20,000 cells/well in a volume of 100 μl of fully supplemented growth medium. […] Subsequently, 50 μl of 1× reporter lysis buffer (Promega #E4030) was added to each well, and the plates were stored at –20 °C for at least 2 h.

[7] = tested on: HCT116 p53 WT and p53 KO cells; experiment: IncuCyte cell confluence measurements; assay type: cell-based, human; conditions: HCT116 p53 WT or KO, 5 μM, confluence over 72 h
Experimental: ARN8 or HCT116 p53 WT or KO cells were seeded in a 96-well plate at a density of 4000 cells/well in a volume of 100 μl. […] The medium of the assigned wells was replaced with 100 μl of fresh medium containing a 5 μM concentration of the corresponding Tenovins or DMSO control and placed in an IncuCyte S3 system located inside a CO2 incubator.

[8] = target: T1, recombinant human DHODH; experiment: Thermal shift assay using intrinsic FMN fluorescence; assay type: binding; conditions: 200 μM compound, 5 μM DHODH
Experimental: 5 μM recombinant human DHODH prepared as described ([36]) was used in this assay. The assay relied upon the intrinsic fluorescence of the embedded flavin mononucleotide (FMN) within the DHODH as a proxy for unfolding of DHODH across a temperature range, much in the same manner as the thermal shift assay using SYPRO Orange ([37]). A PCR machine with a filter set with an excitation range of 475–500 nm and an emission range of 520–590 nm was used for this experiment. 5 μM DHODH was prepared with 200 μM compound with a final concentration of 0.5% DMSO in each sample in buffer consisting of 50 mM HEPES and 150 mM NaCl. The final assay volume was 10 μl. The samples were heated across a temperature range with the fluorescence emission from FMN monitored at each temperature.

[9] = 6 nM recombinant human DHODH, average of three independent repeats, read-out: DHODH inhibition (enzyme assay), IC50

Row | SMILES | Effect on cell cycle distribution / cell death [1] | Effect of uridine or OA on the compound's cell cycle effect [1] | IC50 [2, 9] | IC50 ([2]; enzyme assay, read-out: DHODH IC50) | Effect of supplementation on tumor cell growth inhibition (SRB) [3] | Inhibition of uridine uptake after 15 min [4] | Treatment time at which p53 protein levels increased [5] | Effect of OA and uridine on p53 protein and downstream signaling (hdm2, p21) [5] | Effect of supplementation on induction of p53 transcriptional activity [6] | Effect on cell growth in p53 KO versus p53 WT cells [7] | Stabilization of DHODH in thermal shift assay [8] | Inhibition of DHODH enzyme activity (in words) ([2]; biochemical assay)
1 | CC(=O)Nc1ccc(NC(=S)NC(=O)c2ccc(C(C)(C)C)cc2)cc1 [Tenovin 1] | increase in cell death | effect on the cell cycle largely prevented | 113 nM | ~113 nM | reduced upon supplementation with uridine or OA | unable to alter uridine uptake | – | – | – | – | – | –
2 | CN(C)CCCCC(=O)Nc1ccc(NC(=S)NC(=O)c2ccc(C(C)(C)C)cc2)cc1 [Tenovin 6] | – | – | 500 nM | – | no rescue of cell viability | able to inhibit uridine uptake | 2 h | ablation of p53 downstream signaling | partially ablated | effects on cell growth ablated in the p53 KO cells | – | –
3 | CN(C)CCCCC(=O)Nc1ccc(NC(=O)NC(=O)c2ccc(C(C)(C)C)cc2)cc1 [Tenovin 33] | increase in the percentage of cells in S-phase | effect on the cell cycle largely prevented | > 20000 nM | – | reduced upon supplementation with uridine or OA | able to inhibit uridine uptake | 8 h | ablation of p53 downstream signaling | completely ablated | – | nor was it able to stabilize DHODH in a thermal shift assay | incapable of inhibiting DHODH enzyme activity
4 | Cc1c(-c2ccc(-c3ccccc3F)cc2)nc2ccc(F)cc2c1C(=O)O [brequinar, reference compound] | increase in the percentage of cells in S-phase | – | – | – | – | – | – | – | – | – | – | –

— article PMC7939445, “Exploitation of dihydroorotate dehydrogenase (DHODH) and p53 activation as therapeutic targets: A case study in polypharmacology” (The Journal of Biological Chemistry, 2021)
